Laboratory results as given in US9556111B2, “Tertiary amines for use in the treatment of cardiac disorders” (Universitetet I Oslo, priority 2012, dated 2017).
Where two headings read alike, the source gives them in different places.

Key:
[1] = test system: metabolically active cells; assay: Cell viability luminescence assay; type: cell-based; details: 24 hours incubation
Description: Compound toxicity was measured in a luminescence assay that gives a signal proportional to the amount of metabolically active cells in the sample; the assay was performed as described by the supplier. All synthesized compounds were tested in the viability assay, and viability was registered at 24 hours and 72 hours.

[2] = test system: PLB-Ser^16 phosphorylation; assay: PLB-Ser16 phosphorylation in isoproterenol-stimulated rat neonatal cardiomyocytes (western blot); type: cell-based; details: for Effect on PLB phosphorylation in cardiomyocytes / effect on PLB phosphorylation: rat neonatal cardiomyocytes; for Effect on PLB phosphorylation in cardiomyocytes: compounds 24 hours prior isoproterenol (100 nM, 5 minutes); for IC50: Rattus norvegicus, Cardiomyocyte, read-out: half-maximal effect, inhibition of phospholamban phosphorylation; for effect on PLB phosphorylation: Example 53
Description: FIG. 7: Disruption of the AKAP18δ-PLB complex influences PLB-Ser^16 phosphorylation. Rat neonatal cardiomyocytes treated with compounds 24 hours prior stimulation with isoproterenol (100 nM, 5 minutes).
(§1) FIG. 9: Disruption of the AKAP18δ-PLB complex influences PLB-Ser^16 phosphorylation. Rat neonatal cardiomyocytes treated with compound 2g (A) or 3d (C) 24 hours prior stimulation with isoproterenol (100 nM, 5 minutes). Rat adult cardiomyocytes treated with compound 2g (B) 1 hour prior to stimulation with isoproterenol (10 nM, 5 minutes). The histograms show levels of phosphorylated Ser^16-PLB quantified by densitometry on Western blots (relative to actin levels).
Based on data from studies in cardiomyocytes assay using a peptide that blocks AKAP18δ-PLB interaction, it was expected that effective compounds would also cause disruption of the AKAP18δ-PLB complex and decrease PLB-Ser^16 phosphorylation (Lygren et al. in EMBO Reports, volume 8, issue 11, page 1061-1067 (2007). A small selection of hits from the derivatized compounds were tested in this cell-based assay, performed as described in Lygren et al.
Briefly, compounds were added to primary cultures of rat neonatal cardiomyocytes were added compounds about 24 hour prior stimulation with isoproterenol, and amount of phosphorylated Ser^16-PLB was analyzed by western blotting using a pSer^16-PLB phosphospecific antibody. Actin was used as a loading control.
Rat neonatal cardiomyocytes treated with compounds 24 hours prior stimulation with isoproterenol (100 nM, 5 minutes).

[3] = test system: PLB-Ser^16 phosphorylation; assay: PLB-Ser16 phosphorylation in isoproterenol-stimulated rat adult cardiomyocytes; type: cell-based; details: Cardiomyocyte, 1 hour prior isoproterenol (10 nM, 5 minutes), read-out: half-maximal effect, inhibition of phospholamban phosphorylation
Description: as §1
Following on Example 53, two compounds, 2g and 3d (FIGS. 9A.B and 9C, respectively), were tested in more detail for their ability to interfere with phosphorylation of phospholamban after stimulation of neonatal (FIGS. 9A and 9C) or adult (FIG. 9B) primary cultures of cardiomyocytes.

SERCA2 = SERCA2 (Rattus norvegicus (Rat), UniProt P11507); assay: Patch clamp based SERCA2 activity assay in intact adult rat cardiomyocytes; details: 10 uM mesylate salt, cell dialysis in the presence of cAMP, preliminary data
Description: FIG. 10: Compound 2g regulates SERCA2-activity. A novel patch clamp based technique was performed to directly assess SERCA-activity independently of receptor stimulation in intact cardiomyocytes. By dialyzing cardiomyocytes with a fixed level of cAMP with and without presence of compound 2g, preliminary data indicates ability of compound 2g to regulate SERCA2-activity in intact adult cardiomyocytes.
Adult rat cardiomyocytes were isolated and perfused with external solution (NaCl-125, CsCl 20, D-glucose 5, MgCl2 1, CaCl2 1.8, Hepes 10, 4-aminopyridine 5, probenecid 2, pH 7.4 by NaOH). […] Whole-cell Ca fluorescence measured from voltage-clamped cells was performed with Cairn Research Optoscan Monochromator (Excitation 488 nm, emission 515 nm long pass) (Cain Research Ltd., Faverham, UK). By applying 100 ms square voltage step from −45 to 0 mV at 0.125 Hz by an Axoclamp 2B amplifier (Axon Instruments, Foster City, Calif., USA), basal Ca transients were recorded, and tau values were obtained by monoexponential fitting of the Ca^2+ extrusion phase from regular transients (τ) and caffeine transients (τcaff) after rapid applications of 10 mM caffeine. SERCA2 rate constant were calculated as: k_SERCA=1/τ−1/τcaff.

[4] = Aqueous solubility of free bases and various salts by dissolution at room temperature; type: physicochemical; details: water, thermodynamic from solid
Description: The aqueous solubility of various amine compounds and their corresponding salts were determined by dissolution of various amounts of the respective compounds at room temperature.

[5] = Aqueous solubility of tribenzylamine and salts quantified by HPLC (AUC); type: physicochemical; details: HPLC area under curve
Description: Tribenzylamine and the corresponding salts were dissolved in water and the solubility was quantified (area under curve (AUC)) by HPLC
Solubility of Tribenzylamine and its Corresponding HCl and Mesylate Salts, Tested on HPLC.

[6] = 24 hours prior isoproterenol (100 nM, 5 minutes)
[7] = HCl salt, read-out: Solubility HCl salt
[8] = free base, read-out: Solubility free base
[9] = mesylate salt, read-out: Solubility Mesylate salt

Row | Compound | Viability (100 μM) 24 hours [1] | solubility [4, 7] [µg/mL] | solubility [4, 8] [µg/mL] | solubility [4, 9] [µg/mL] | other results
1 | Fc1ccc(CN(Cc2ccncc2)Cc2ccc(F)cc2)cc1 [Compound 2a, N,N-bis(4-fluorobenzyl)-1-(pyridin-4-yl)methanamine] | 0.85 |  |  |  | 
2 | Oc1ccc(O)c(CN(Cc2ccncc2)Cc2cc(O)ccc2O)c1 [Compound 2b, 2,2′-(((pyridin-4-ylmethyl)azanediyl)bis(methylene))bis(benzene-1,4-diol)] | 0.10 |  |  |  | Effect on PLB phosphorylation in cardiomyocytes [2]: −
3 | Fc1ccc(CN(Cc2ccc(F)cc2)Cc2nccs2)cc1 [Compound 2c, N,N-bis(4-fluorobenzyl)-1-(thiazol-2-yl)methanamine] | 1.11 |  |  |  | 
4 | COc1ccc(CN(Cc2ccc(OC)cc2)Cc2nccs2)cc1 [Compound 2d, N,N-bis(4-methoxybenzyl)-1-(thiazol-2-yl)methanamine] | 1.15 |  |  |  | 
5 | COc1ccc(CN(Cc2ccccc2)Cc2ccc(OC)cc2)cc1 [Compound 2e, N-benzyl-N-(4-methoxybenzyl)-1-(4-methoxyphenyl)methanamine] | 1.01 |  |  |  | 
6 | COC(=O)c1ccc(CN(Cc2ccccc2)Cc2ccc(C(=O)OC)cc2)cc1 [Compound 2f, dimethyl 4,4′-((benzylazanediyl)bis(methylene))dibenzoate] | 0.92 |  |  |  | 
7 | CN(C)c1ccc(CN(Cc2ccccc2)Cc2ccc(N(C)C)cc2)cc1 [Compound 2g, 4-((benzyl(4-(dimethylamino)benzyl)amino)methyl)-N,N-dimethylaniline] | 0.56 |  |  |  | IC50 [2]: ~40 µM; effect on PLB phosphorylation [2, 6]: concentration dependent inhibition of PLB-phosphorylation; Effect on PLB phosphorylation in cardiomyocytes [2]: ++; IC50 [3]: ~100 µM; SERCA2 activity (SERCA2): increased SERCA2 activity
8 | CC(c1ccccc1)N(Cc1ccc(N(C)C)cc1)Cc1ccc(N(C)C)cc1 (stereo not shown) [Compound 2h, 4-(((4-(dimethylamino)benzyl)(1-phenylethyl)amino)methyl)-N,N-dimethylaniline] | 0.91 |  |  |  | 
9 | CC(C)(C)c1ccc(CN(Cc2ccncc2)Cc2ccc(F)cc2)cc1 [Compound 3a, N-(4-(tert-butyl)benzyl)-N-(4-fluorobenzyl)-1-(pyridin-4-yl)methanamine] | 0.79 |  |  |  | 
10 | Oc1ccc(O)c(CN(Cc2ccncc2)Cc2ccc(F)cc2)c1 [Compound 3b, 2-(((4-fluorobenzyl)(pyridin-4-ylmethyl)amino)methyl)benzene-1,4-diol] | 0.03 |  |  |  | 
11 | CN(C)c1ccc(CN(Cc2ccccc2)CC(c2ccccc2)c2ccccc2)cc1 [Compound 3c, 4-((benzyl(2,2-diphenylethyl)amino)methyl)-N,N-dimethylaniline] | 0.74 |  |  |  | effect on PLB phosphorylation [2, 6]: somewhat weaker than that of 2g; Effect on PLB phosphorylation in cardiomyocytes [2]: +
12 | CN(C)c1ccc(CN(Cc2ccccc2)Cc2ccc3c(c2)CCO3)cc1 [Compound 3d] | 0.58 |  |  |  | IC50 ([2]; neonatal cardiomyocytes, 24 hours prior isoproterenol (100 nM, 5 minutes)): ~100 µM; effect on PLB phosphorylation [2, 6]: did not appear to have an effect; Effect on PLB phosphorylation in cardiomyocytes [2]: −
13 | COC(=O)c1ccc(CN(Cc2ccccc2)Cc2ccc(F)cc2)cc1 [Compound 3e, methyl 4-((benzyl(4-fluorobenzyl)amino)methyl)benzoate] | 0.57 |  |  |  | 
14 | O=C(O)c1ccc(CN(Cc2ccccc2)Cc2ccc(F)cc2)cc1 [Compound 3f, 4-((benzyl(4-fluorobenzyl)amino)methyl)benzoic acid] | 0.98 |  |  |  | effect on PLB phosphorylation [2, 6]: did not appear to have an effect; Effect on PLB phosphorylation in cardiomyocytes [2]: +
15 | Fc1ccc(CN(Cc2ccccc2)Cc2ccc(-c3ccccc3-c3nn[nH]n3)cc2)cc1 [Compound 3g, 1-(2′-(2H-tetrazol-5-yl)-[1,1′-biphenyl]-4-yl)-N-benzyl-N-(4-fluorobenzyl)methanamine] | 0.80 |  |  |  | 
16 | COC(=O)c1ccc(CN(Cc2ccccc2)Cc2ccc(C(=O)OC)cc2)cc1 [Compound 17, dimethyl 4,4′-((benzylazanediyl)bis(methylene))dibenzoate] |  | < 360 | < 360 | < 360 | 
17 | O=C(O)c1ccc(CN(Cc2ccccc2)Cc2ccc(C(=O)O)cc2)cc1 [Compound 18] |  | < 50 | < 50 | < 50 | 
18 | CC(C)(C)c1ccc(CN(Cc2ccccc2)Cc2ccc(C(C)(C)C)cc2)cc1 [Compound 19, N-benzyl-N-(4-(tert-butyl)benzyl)-1-(4-(tert-butyl)phenyl)methanamine] |  | < 50 | < 50 | < 50 | 
19 | O=[N+]([O-])c1ccc(CN(Cc2ccccc2)Cc2ccc([N+](=O)[O-])cc2)cc1 [Compound 20, N-benzyl-N-(4-nitrobenzyl)-1-(4-nitrophenyl)methanamine] |  | < 3000 | < 3000 | < 3000 | 
20 | Nc1ccc(CN(Cc2ccccc2)Cc2ccc(N)cc2)cc1 [Compound 22, 4-(((4-aminobenzyl)(benzyl)amino)methyl)aniline] |  | 4500 | < 50 | > 22000 | 
21 | CCN(CC)c1ccc(CN(Cc2ccccc2)Cc2ccc(N(CC)CC)cc2)cc1 [Compound 23, 4-((benzyl(4-(diethylamino)benzyl)amino)methyl)-N,N-diethylaniline] |  | 15000 | < 50 | > 34000 | 
22 | Cc1ccc(NC(=O)Nc2ccc(CN(Cc3ccccc3)Cc3ccc(NC(=O)Nc4ccc(C)cc4)cc3)cc2)cc1 [Compound 25, 1,1′-(((benzylazanediyl)bis(methylene))bis(4,1-phenylene))bis(3-(p-tolyl)urea)] |  | < 50 | < 50 | < 50 | 
23 | O=C(Nc1ccc(F)cc1)Nc1ccc(CN(Cc2ccccc2)Cc2ccc(NC(=O)Nc3ccc(F)cc3)cc2)cc1 [Compound 26, 1,1′-(((benzylazanediyl)bis(methylene))bis(4,1-phenylene))bis(3-(4-fluorophenyl)urea)] |  | < 1500 | < 1500 | < 1500 | 
24 | O=C(Nc1ccccc1)Nc1ccc(CN(Cc2ccccc2)Cc2ccc(NC(=O)Nc3ccccc3)cc2)cc1 [Compound 27, 1,1′-(((benzylazanediyl)bis(methylene))bis(4,1-phenylene))bis(3-phenylurea)] |  | < 500 | < 500 | < 500 | 
25 | CN(C)c1ccc(CN(Cc2ccccc2)Cc2ccc(N(C)C)cc2)cc1 [Compound 29, 4-((benzyl(4-(dimethylamino)benzyl)amino)methyl)-N,N-dimethylaniline] |  | 6000 | < 160 | 94000 | 
26 | c1ccc(CN(Cc2ccccc2)Cc2ccccc2)cc1 [Tribenzylamine] |  |  |  |  | AUC HCl salt ([5]; HCl salt dissolved in water): 406 mAu*s; AUC Free base ([5]; free base dissolved in water): ≈0 mAu*s; AUC Mesylate salt ([5]; mesylate salt dissolved in water): 1975 mAu*s
